Patent US11787783B2, “Heparanase inhibitors and use thereof” (Beta Therapeutics Pty Ltd, priority 2016, dated 2023)

tested on: db/db mice; assay: Intra-islet heparan sulfate content in db/db mice, Alcian blue staining; type: in vivo, mouse; conditions: 50 mg/kg daily intraperitoneal injection, versus saline treated db/db and wild-type mice
Method: (§1) FIG. 6. Intra-islet HS content in pancreas sections in treated db/db mice. Mice were treated daily with 50 mg/kg PI-88 IP from 4 weeks of age. Onset of clinical diabetes was determined by measuring urine glucose twice weekly with Multistix reagent strips and confirmed by measuring non-fasting blood glucose levels in tail vein blood using a MediSense glucometer with hyperglycemia defined as 2 consecutive blood glucose readings of 16 mmol/I or greater. Islet HS was detected by Alcian blue staining.
db/db mice were treated with saline or 50 mg/kg of PI-88 daily by intraperitoneal injection. At the cessation of treatment pancreatic islets were isolated and stained with alcian blue to visualise heparan sulfate and the heparan sulfate content of the islets was assessed by quantitative morphometric analyses.

Row | Compound | Islet heparan sulfate levels (quantitative morphometric analyses)
1 | PI-88 | increased compared to the saline treated db/db mice and are near to the levels of heparan sulfate in the islets of wild-type mice

tested on: RIP-OVAhi mice; assay: Adoptive transfer of Type 1 diabetes in transgenic RIP-OVAhi mice (acute Type 1 diabetes model); type: in vivo, mouse; conditions: 10 mg/kg QD, IP, 14 day assay period
Method: FIG. 2. Treatment of RIP-OVA^hi mice from the time of adoptive transfer of OVA-specific OT-1 and activated […] tg T cells with the small molecule heparanase inhibitor BT-2012 (10 mg/kg QD, IP in saline/50% DMSO).
FIG. 3. Treatment of RIP-OVA^hi mice from the time of adoptive transfer of OVA-specific OT-1 and activated OT-II tg T cells with a control heparanase inhibitor, (denoted “BT-1055”) (10 mg/kg QD, IP in saline/20% DMSO).
In NOD mice, the autoimmune disease process develops slowly because of the asynchronous destruction of the beta cells in different islets. Indeed Type 1 diabetes develops only after >90% of the total islet beta cell mass has been destroyed. The slow course of the disease in NOD mice offers realistic potential for immune intervention but, unfortunately, high throughput screening of test drugs is not feasible. A more acute model of diabetes can be induced experimentally using RIP-OVAhi transgenic mice which express a foreign ovalbumin (OVA) peptide, under the control of the rat insulin promoter (RIP), only in islet beta cells. Following adoptive transfer of naïve OVA specific CD8+ (OT-I) and activated OVA-specific CD4+ (OT-II) transgenic T cells, the transgenic T cells traffic to the host lymph nodes where the OT-I T cells become activated and then to the OVA-expressing pancreatic islets where they rapidly induce islet beta cell destruction and diabetes, all mice succumbing to rapid onset of high blood glucose levels (hyperglycaemia) in the second week after cell transfer. […]
Using the RIP-OVAhi transgenic mice the effect of a heparanase inhibitor compound (denoted “BT-1055”) was tested for its effect on blood glucose levels. Following adoptive transfer of naïve OVA specific CD8+ (OT-I) and activated OVA-specific CD4+ (OT-II) transgenic T cells into a number of RIP-OVAhi mice blood glucose was monitored regularly over two weeks in populations of mice treated with BT-1055 and a control group administered saline (FIG. 3).

Row | Compound | Individual treated mice in which blood glucose remained normal
2 | COc1cc2[nH]c(=S)n(CCc3c[nH]c4ccccc34)c(=N)c2cc1OC [BT2012] | 50%

same assay, conditions: 10 mg/kg QD, IP, from the time of adoptive transfer of OT-I and activated OT-II tg T cells

Row | Compound | Incidence of diabetes (blood glucose >12 mmol) reduced
3 | COc1cc2[nH]c(=S)n(CCc3c[nH]c4ccccc34)c(=N)c2cc1OC [BT2012] | 50%

same assay, conditions: 10 mg/kg, by 14 days after transfer

Row | Compound | Protection from Type 1 diabetes induction following adoptive transfer of diabetogenic tg T cells
4 | COc1cc2[nH]c(=S)n(CCc3c[nH]c4ccccc34)c(=N)c2cc1OC [BT2012] | protected RIPOVAhi mice from Type 1 diabetes induction

biological target: T1, heparanase (Homo sapiens, UniProt Q9Y251); assay: Heparanase inhibition (IC50); type: biochemical; conditions: Heparanase inhibition IC50
T1 sequence (Q9Y251 158-543 limits assumed): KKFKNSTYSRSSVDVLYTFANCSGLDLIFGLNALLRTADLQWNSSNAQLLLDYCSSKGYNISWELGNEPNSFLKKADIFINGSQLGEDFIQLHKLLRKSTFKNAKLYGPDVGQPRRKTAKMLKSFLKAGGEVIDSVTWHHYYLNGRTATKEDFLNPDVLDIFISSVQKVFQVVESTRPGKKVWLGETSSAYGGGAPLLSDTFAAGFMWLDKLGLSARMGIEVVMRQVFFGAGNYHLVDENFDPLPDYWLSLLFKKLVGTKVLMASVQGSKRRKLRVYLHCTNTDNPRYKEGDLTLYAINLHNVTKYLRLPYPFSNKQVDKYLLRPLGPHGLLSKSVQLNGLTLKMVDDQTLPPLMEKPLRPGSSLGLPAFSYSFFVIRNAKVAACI
T1 sequence (Q9Y251 36-109 limits assumed): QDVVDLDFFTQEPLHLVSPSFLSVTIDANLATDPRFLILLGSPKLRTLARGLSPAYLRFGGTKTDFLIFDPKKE
Method: Heparanase inhibition was determined using standard methods and the results expressed as the half maximal inhibitory concentration (IC50) being the concentration of the compound of the invention required to achieve 50% inhibition of heparanase.

Row | Compound | IC50
5 | COc1cc2[nH]c(=S)n(CCn3cc(C(=O)NCCN4CCOCC4)c4ccccc43)c(=N)c2cc1OC [BT2104] | 44.8 µM

same assay, conditions: read-out: Heparanase inhibition IC50

Row | Compound | IC50
6 | COc1cc2[nH]c(=S)n(CCc3cn(C)c4ccccc34)c(=N)c2cc1OC [BT2024] | 27.4 µM
7 | COc1ccc2[nH]cc(CCn3c(=S)[nH]c4cc(OC)c(OC)cc4c3=N)c2c1 [BT2046] | 9.4 µM
8 | COc1cc2[nH]c(=S)n(CCc3c[nH]c4ccc(-c5cccnc5)cc34)c(=N)c2cc1OC [BT2055] | 19.1 µM
9 | COc1ccc(OC)c(Cn2c(=S)[nH]c3cc(OC)c(OC)cc3c2=N)c1 [BT2022] | 37.2 µM
10 | COc1cc2[nH]c(=S)n(CCNC(=O)c3cc4ccc(-c5ccc(N6CCN(C)CC6)nc5)cc4[nH]3)c(=N)c2cc1OC [BT2076] | 12.4 µM
11 | COc1ccc2[nH]c(=S)n(CCc3c[nH]c4ccccc34)c(=N)c2c1 [BT2014] | 49.3 µM
12 | COc1cc2[nH]c(=S)n(CCc3c[nH]c4ccccc34)c(=N)c2cc1OC [BT2044] | 30 µM
13 | COc1cc2[nH]c(=S)n(CCc3c[nH]c4ccccc34)c(=N)c2cc1OC [BT2012] | 14.8 µM
14 | COc1cc2[nH]c(=S)n(CCNC(=O)c3cc4cc(-c5ccc(N6CCN(C)CC6)nc5)ccc4[nH]3)c(=N)c2cc1OC [BT2075] | 20.6 µM
15 | COc1cc2[nH]c(=O)n(CCNC(=O)c3cc4cc(C(=O)N5CCC5)ccc4[nH]3)c(=N)c2cc1OC [BT2080] | 90.4 µM
16 | COc1cc2[nH]c(=S)n(CCNC(=O)c3cc4cc(-c5cnn(C)c5)ccc4[nH]3)c(=N)c2cc1OC [BT2078] | 34.8 µM
17 | COc1ccc(Cn2c(=S)[nH]c3cc(OC)c(OC)cc3c2=N)c(OC)c1 [BT2027] | 40.1 µM
18 | COc1cc2[nH]c(=S)n(CCNC(=O)c3cc4ccc(-c5ccc(C(=O)N6CCN(C)CC6)cc5)cc4[nH]3)c(=N)c2cc1OC [BT2073] | 51 µM

Other lines, results leading:

Row | IC50 | Compound
19 | 59.9 µM | COc1cc2[nH]c(=S)n(CCNC(=O)c3nnc(-c4ccccc4)o3)c(=N)c2cc1OC [BT2144]
20 | 13 µM | COc1cc2nc(SCc3ccc(C(F)(F)F)cc3)n(C3CN(C(=O)c4cc5ccc(-c6cccnc6)cc5[nH]4)C3)c(=N)c2cc1OC [BT2139]
21 | 35 µM | COc1cc2[nH]c(=S)n(CCNC(=O)c3cc4cc(C(=O)N5CCOCC5)ccc4[nH]3)c(=N)c2cc1OC [BT2082]
22 | 1.3 µM | COc1cc2[nH]c(=S)n(C3CN(C(=O)c4cc5cc(-c6cccnc6)ccc5[nH]4)C3)c(=N)c2cc1OC [BT2085]
23 | 19.7 µM | COc1cc2[nH]c(=S)n(CCNC(=O)c3cccc(-c4ccccc4)n3)c(=N)c2cc1OC [BT2115]
24 | 33 µM | COc1cc2nc(SC)n(C3CN(C(=O)c4cc5ccc(-c6cccnc6)cc5[nH]4)C3)c(=N)c2cc1OC [BT2143]
25 | 90.4 µM | COc1cc2[nH]c(=O)n(CCNC(=O)c3cc4cc(C(=O)N5CCOCC5)ccc4[nH]3)c(=N)c2cc1OC [BT2081]
26 | 37.5 µM | COc1cc2nc(SCc3ccc(C(F)(F)F)cc3)n(C3CN(C(=O)c4cc5ccc(-c6cccnc6)cc5[nH]4)C3)c(=N)c2cc1OC [BT2140]
27 | 23.6 µM | COc1cc2nc(SC)n(C3CN(C(=O)c4cc5ccc(-c6cccnc6)cc5[nH]4)C3)c(=N)c2cc1OC [BT2141]
28 | 22 µM | COc1cc2nc(SCc3ccc(OC(F)(F)F)cc3)n(C3CN(C(=O)c4cc5ccc(-c6cccnc6)cc5[nH]4)C3)c(=N)c2cc1OC [BT2145]
29 | 7 µM | COc1cc2nc(SCc3ccc(OC(F)(F)F)cc3)n(C3CN(C(=O)c4cc5ccc(-c6cccnc6)cc5[nH]4)C3)c(=N)c2cc1OC [BT2142]
30 | 58.6 µM | COc1cc2[nH]c(=S)n(CCNC(=O)c3nnc(-c4ccccc4)o3)c(=N)c2cc1OC [BT2132]
31 | 64 µM | COc1cc2nc(SCc3ccccc3)n(CCNC(=O)c3cc4ccccc4[nH]3)c(=N)c2cc1OC [BT2135]
32 | 12.8 µM | COc1cc2[nH]c(=S)n(CCNC(=O)c3cccc(-c4ccc(C(=O)N5CCN(C)CC5)cc4)n3)c(=N)c2cc1OC [BT2116]
33 | 15.6 µM | COc1cc2[nH]c(=S)n(CCNC(=O)c3ccc(-c4ccccc4)nc3)c(=N)c2cc1OC [BT2125]
34 | 12.5 µM | COc1cc2[nH]c(=S)n(CCNC(=O)c3cccc(-c4ccc5nonc5c4)n3)c(=N)c2cc1OC [BT2117]

tested on: db/db mice; assay: Insulin content in pancreas sections/islets of db/db mice (Type 2 diabetes model), anti-insulin antibody staining; type: in vivo, mouse; conditions: 50 mg/kg daily intraperitoneal injection, versus saline treated db/db and wild-type mice
Method: as §1, with “5. Insulin” for “6. Intra-islet HS”, “in” for “in treated”, “mice a model of Type 2 diabetes.” for “mice.”, “Insulin” for “Islet HS”, “anti-insulin antibody” for “Alcian blue”
The db/db mouse has defective leptin signalling resulting from a point mutation in the leptin receptor gene. Plasma insulin levels become elevated very early in life (10-14 days of age), and the affected animals are obese by the time they are 3-4 weeks old. The animals are insulin resistant, hypertriglyceridemic, and have impaired glucose tolerance.
db/db mice were treated with saline or 50 mg/kg of PI-88 by daily intraperitoneal injection. At the cessation of treatment pancreatic islets were isolated and stained for insulin and the level of insulin expression assessed by quantitative morphometric analyses.

Row | Compound | Expression of insulin in islets (quantitative morphometric analyses)
35 | PI-88 | increased compared to the saline treated db/db mice and is near to the level of insulin expression in the wild-type mice
